“And” between values parts separate entries of the source, which are not always exact repeats. Equal values may be shown once.
Tested on: WT ELIC
Test: Fluorescence stopped-flow liposomal Tl+ flux assay, symmetric liposomes
Type: biochemical, Erwinia chrysanthemi
Design: Tl+ flux quenching rate, Avg. / Tl+ flux quenching rate: unit not given here
Details: for Avg (stopped-flow fluorescence quenching rate) / Rate (stopped-flow fluorescence quenching rate): WT in PC liposomes; for Avg (stopped-flow fluorescence quenching rate): average of experiments; for Rate (stopped-flow fluorescence quenching rate) / Tl+ flux quenching rate: single experiments
Method: The fluorescence sequential-mixing stopped-flow liposomal flux measurements were carried using an SX20 stopped-flow spectrofluorometer (Applied Photophysics) and Pro-Data SX software[13],[30]. 7.5 mg of the respective lipid mixture (POPC, 1:1 POPC: POPE, 1:1 POPC:POPG, 3:1 POPC:POPE, 3:1 POPC:POPG, 2:1:1 POPC:POPE:POPG) was dried in a glass vial to a thin film under a constant stream of N2. The lipids were then further dried under vacuum in a desiccator overnight. The following day the lipids were hydrated in 500 µl of reconstitution buffer (100 mM NaNO3, 10 mM HEPES, pH 7) (Buffer R), 250 µl of 75 mM 8-Aminonaphthalene-1,3,6-Trisulfonic Acid (ANTS, ThermoFisher Scientific) in buffer R, and doped with ~18 mg of CHAPS (Anatrace). The mixture was vortexed and then sonicated with heat until completely solubilized. Following the sonication, the solution was brought to RT then 3.5 µl of 6.7 mg/ml ELIC in Buffer A with 0.02% DDM was added (3 µg per mg of lipid). This combined solution was incubated at RT for 30 min, followed by the addition of 1 ml of 1:1 v/v SM-2 BioBeads in Buffer R and an additional 250 µl of 75 mM ANTS in Buffer R. This mixture was incubated at RT for 2.5 hr with gentle mixing. The liposome suspension was then extruded with an Avanti mini-extruder and 0.1 µm membrane (30×). The extruded liposomes were stored at 13 °C overnight with gentle rotation. The next day, the liposomes were diluted to 2.5 mL using assay buffer (140 mM NaNO3, 10 mM HEPES, pH 7) (Stopped-flow Buffer A), loaded into a PD-10 desalting column (Cytiva), eluted with 3 mL of Stopped-flow Buffer A and subsequently diluted 5-fold with Stopped-flow Buffer A.
Using propylamine as the agonist, the assay and analysis was carried out as previously described[13],[30]. ELIC-containing liposomes were first mixed 1:1 with Buffer A containing 2× the concentration of propylamine. After a variable delay of 10 ms to 25 s, the sample was then mixed 1:1 with a quenching buffer (90 mM NaNO3, 50 mM TlNO3, 10 mM HEPES, pH 7), and ANTS fluorescence (ex. 360 nm, fluorescence above 420 nm) was recorded for 1 s. For each delay time, 5 repeat measurements were obtained. The data were collected using Applied Photophysics Pro-Data SX software. The fluorescence quenching traces were fit to a stretched exponential (Eq. 2a) and the rate of Tl^+ influx was determined at 2 ms (Eq. 2b).2a Ft=F∞+F0−F∞⋅e^−t/τ^β 2b kt=β/τ⋅2ms/τ^(β−1) where Ft, F∞, F0 are the fluorescence at time t, final fluorescence and initial fluorescence. τ is the time constant, β the stretched exponential factor, and kt the calculated rate of Tl^+ influx at 2 ms. The time course of desensitization was also fit to a double exponential and a weighted time constant was calculated as was done for the patch-clamp data using Origin 2019b. All replicates were taken from independent samples.

CCCN [propylamine]
Avg (stopped-flow fluorescence quenching rate) (1 mM PA, delay time 0.1): 0.1082
Avg (stopped-flow fluorescence quenching rate) (1 mM PA, delay time 0.25): 0.06695
Avg (stopped-flow fluorescence quenching rate) (1 mM PA, delay time 0.5): 0.1937
Avg (stopped-flow fluorescence quenching rate) (1 mM PA, delay time 1): 0.6717
Avg (stopped-flow fluorescence quenching rate) (1 mM PA, delay time 2.5): 0.1973
Avg (stopped-flow fluorescence quenching rate) (1 mM PA, delay time 5): 0.1019
Avg (stopped-flow fluorescence quenching rate) (1 mM PA, delay time 10): 0.1686
Avg (stopped-flow fluorescence quenching rate) (3 mM PA, delay time 0): 0
Rate (stopped-flow fluorescence quenching rate) (3 mM PA, delay time 0): 0
Avg (stopped-flow fluorescence quenching rate) (3 mM PA, delay time 0.025): 24.9362
Avg (stopped-flow fluorescence quenching rate) (3 mM PA, delay time 0.05): 279.785
Avg (stopped-flow fluorescence quenching rate) (3 mM PA, delay time 0.1): 279.666
Avg (stopped-flow fluorescence quenching rate) (3 mM PA, delay time 0.25): 300.719
Avg (stopped-flow fluorescence quenching rate) (3 mM PA, delay time 0.5): 352.59
Avg (stopped-flow fluorescence quenching rate) (3 mM PA, delay time 1): 284.973
Avg (stopped-flow fluorescence quenching rate) (3 mM PA, delay time 2.5): 176.344
Avg (stopped-flow fluorescence quenching rate) (3 mM PA, delay time 5): 145.791
Avg (stopped-flow fluorescence quenching rate) (3 mM PA, delay time 10): 107.502
Avg (stopped-flow fluorescence quenching rate) (10 mM PA, delay time 0): 0
Rate (stopped-flow fluorescence quenching rate) (10 mM PA, delay time 0): 0
Avg (stopped-flow fluorescence quenching rate) (10 mM PA, delay time 0.01): 3.242
Avg (stopped-flow fluorescence quenching rate) (10 mM PA, delay time 0.025): 7.793
Avg (stopped-flow fluorescence quenching rate) (10 mM PA, delay time 0.05): 10.0904
Avg (stopped-flow fluorescence quenching rate) (10 mM PA, delay time 0.05 as printed in r31 (between 0.25 and 1)): 13.718
Avg (stopped-flow fluorescence quenching rate) (10 mM PA, delay time 0.1): 10.8806
Avg (stopped-flow fluorescence quenching rate) (10 mM PA, delay time 0.25): 11.6946
Avg (stopped-flow fluorescence quenching rate) (10 mM PA, delay time 1): 9.9293
Avg (stopped-flow fluorescence quenching rate) (10 mM PA, delay time 2.5): 4.516
Avg (stopped-flow fluorescence quenching rate) (10 mM PA, delay time 5): 0.8684
Rate (stopped-flow fluorescence quenching rate) (10 mM PA, delay time 10, listed as PA): 0.134 and 0.08335 and 0.06725
Avg (stopped-flow fluorescence quenching rate) (30 mM PA, delay time 0): 0
Rate (stopped-flow fluorescence quenching rate) (30 mM PA, delay time 0): 0
Avg (stopped-flow fluorescence quenching rate) (30 mM PA, delay time 0.01): 8.996
Avg (stopped-flow fluorescence quenching rate) (30 mM PA, delay time 0.025): 9.575
Avg (stopped-flow fluorescence quenching rate) (30 mM PA, delay time 0.05): 10.6204
Avg (stopped-flow fluorescence quenching rate) (30 mM PA, delay time 0.1): 12.7838
Avg (stopped-flow fluorescence quenching rate) (30 mM PA, delay time 0.25): 12.1642
Avg (stopped-flow fluorescence quenching rate) (30 mM PA, delay time 0.5): 10.2984
Avg (stopped-flow fluorescence quenching rate) (30 mM PA, delay time 1): 6.967
Avg (stopped-flow fluorescence quenching rate) (30 mM PA, delay time 2.5): 2.226
Avg (stopped-flow fluorescence quenching rate) (30 mM PA, delay time 5): 0.2318
Rate (stopped-flow fluorescence quenching rate) (30 mM PA, delay time 25, listed as PA): 0.1998 and 0.3265
Tl+ flux quenching rate (WT 1:1 PC:PE 10 mM PA, delay 0.1 s, listed as PA): 18.5265 and 20.1957 and 27.1402
Tl+ flux quenching rate (WT 1:1 PC:PE 10 mM PA, delay 0.25 s, listed as PA): 14.1307 and 20.5822 and 22.3191
Tl+ flux quenching rate (WT 1:1 PC:PE 10 mM PA, delay 5 s, listed as PA): 8.309 and 12.2434 and 8.587
Tl+ flux quenching rate (WT 3:1 PC:PE 10 mM PA, delay 0.05 s, listed as PA): 17.3372 and 23.7705 and 12.3709
Tl+ flux quenching rate (WT 3:1 PC:PE 10 mM PA, delay 0.1 s, listed as PA): 25.2651 and 29.8644 and 21.5739
Tl+ flux quenching rate (WT 3:1 PC:PE 10 mM PA, delay 0.5 s, listed as PA): 30.0354 and 34.8933 and 24.5328
Tl+ flux quenching rate (WT 3:1 PC:PG 10 mM PA, delay 1 s, listed as PA): 9.374 and 10.6202 and 12.8093
Tl+ flux quenching rate (WT 3:1 PC:PG 10 mM PA, delay 2.5 s, listed as PA): 7.906 and 8.478 and 12.3833
Tl+ flux quenching rate (WT 3:1 PC:PG 10 mM PA, delay 5 s, listed as PA): 5.2352 and 10.1414 and 9.072
Tl+ flux quenching rate (WT PC 10 mM PA, delay 10 s, listed as PA): 0.134 and 0.08335 and 0.06725

Source: paper PMC9668969 (Nature Communications, 2022)
